Test results reported in patent EP4707275A1, “NOVEL COMPOUND COMPRISING N-METHYLPIPERAZINE ETHANOL CARBAMATE STRUCTURE AND USE THEREOF” (Korea Institute of Radiological & Medical Sciences, priority 2023, dated 2024).

Assays:
[1] = test system: radiation-induced pulmonary fibrosis; experiment: Inhibitory effect on radiation-induced pulmonary fibrosis in mice (Micro-CT, H&E and Masson's Trichrome staining); assay type: in vivo, C57BL/6 mice; details: 2 weeks after radiation exposure (SBRT 90 Gy), oral, nintedanib 60 mg/kg once daily, vs untreated group
Method: One hour before stereotactic body radiation therapy (SBRT; 90 Gy, 4 mm collimator), DCTP and nintedanib, an FDA-approved drug known to inhibit pulmonary fibrosis, were orally administered to seven-week-old male C57BL/6 mice. The degree of pulmonary fibrosis and the inhibitory effect on radiation-induced lung injury were observed two weeks after radiation exposure. The DCTP drug was administered at a dose of 30 mg/kg, and nintedanib was administered once daily (o.d.) at a dose of 60 mg/kg. In addition, to analyze the degree of inflammatory response and the degree of fibrosis two weeks after radiation exposure, H&E staining and Masson's Trichrome staining were performed, and the results are shown in FIG. 5. One hour prior to stereotactic body radiation therapy (SBRT; 90 Gy, 4 mm collimator), PXDP and nintedanib, an FDA-approved drug known to inhibit pulmonary fibrosis, were orally administered to seven-week-old male C57BL/6 mice. The degree of pulmonary fibrosis and the inhibitory effect on radiation-induced lung injury were observed two weeks after radiation exposure. The PXDP drug was administered at a dose of 100 mg/kg, and nintedanib was administered once daily (o.d.) at a dose of 60 mg/kg. To analyze the degree of inflammatory response and the degree of fibrosis 2 weeks after radiation exposure, H&E staining and Masson's Trichrome staining were performed, and the results are shown in FIG. 11.

[2] = test system: idiopathic pulmonary fibrosis induced by bleomycin; experiment: Inhibitory effect on idiopathic pulmonary fibrosis induced by bleomycin in mice (Micro-CT, H&E and Masson's Trichrome staining, survival); assay type: in vivo, C57BL/6 mice; details: oral once daily for two weeks from day 14, nintedanib 60 mg/kg, vs untreated group; for degree of fibrosis (Micro-CT imaging): 4 weeks after bleomycin 1.5 U/kg; for degree of inflammation and fibrosis (H&E and Masson's Trichrome staining) / survival rate: bleomycin 1.5 U/kg; for survival rate: Example 5, FIG. 9
Method: Each drug was administered starting 14 days after the administration of bleomycin. The drug was orally administered at a dose of 20 mg/kg once daily for two weeks (a total of 13 administrations). The control drug, nintedanib, was administered at a dose of 60 mg/kg, and the co-administration group was orally administered nintedanib (60 mg/kg) together with DCTP (20 mg/kg) once daily for two weeks (a total of 13 administrations).
The results of H&E and Masson's Trichrome staining performed to evaluate the degree of inflammation and fibrosis are shown in FIG. 3.
Each drug was administered starting 14 days after the administration of bleomycin. Nintedanib and PXDP were each orally administered at a dose of 60 mg/kg once daily for two weeks (a total of 13 administrations), and the group treated with the combination was orally administered nintedanib (60 mg/kg) together with PXDP (60 mg/kg) once daily for two weeks (a total of 13 administrations).
The results of H&E and Masson's Trichrome staining performed to evaluate the degree of inflammation and fibrosis are shown in FIG. 8.
In addition, the mouse survival rate was compared in FIG. 9.

[3] = Example 3, FIG. 5, DCTP 30 mg/kg
[4] = Example 5, FIG. 7, PXDP 60 mg/kg
[5] = Example 5, FIG. 8, PXDP 60 mg/kg
[6] = Example 6, FIG. 10, PXDP 100 mg/kg
[7] = Example 6, FIG. 11, PXDP 100 mg/kg

Row | Structure (SMILES) | degree of inflammation and degree of fibrosis (H&E and Masson's Trichrome staining) [1, 3] | degree of fibrosis (Micro-CT imaging) [2, 4] | degree of inflammation and fibrosis (H&E and Masson's Trichrome staining) [2, 5] | survival rate ([2]; PXDP 60 mg/kg) | degree of fibrosis (Micro-CT imaging) [1, 6] | degree of fibrosis (Micro-CT imaging) ([1]; Example 6, FIG. 10, PXDP 100 mg/kg, listed as PXPD) | degree of inflammation and degree of fibrosis (H&E and Masson's Trichrome staining) [1, 7] | degree of fibrosis (Micro-CT imaging) ([2]; Example 2, FIG. 2, DCTP 20 mg/kg) | degree of inflammation and fibrosis (H&E and Masson's Trichrome staining) ([2]; Example 2, FIG. 3, DCTP 20 mg/kg) | degree of fibrosis (Micro-CT imaging) ([1]; Example 3, FIG. 4, DCTP 30 mg/kg)
1 | COc1cc2ncnc(N(C(=O)OCCN3CCN(C)CC3)c3ccc(F)c(Cl)c3)c2cc1NC(=O)/C=C/CN1CCCCC1 [DCTP, 2-(4-methylpiperazin-1-yl)ethyl (E)-(3-chloro-4-fluorophenyl)(7-methoxy-6-(4-(piperidin-1-yl)but-2-enamido)quinazolin-4-yl)carbamate] | reduction in fibrosis and inflammation in the lungs |  |  |  |  |  |  |  |  | 
2 | CN1CCN(CCOC(=O)N(Cc2ccc(C(F)(F)F)nc2)c2ccc(Cc3c[nH]c4ncc(Cl)cc34)cn2)CC1 [PXDP, 2-(4-methylpiperazin-1-yl)ethyl (5-((5-chloro-1H-pyrrolo[2,3-b]pyridin-3-yl)methyl)pyridin-2-yl)((6-(trifluoromethyl)pyridin-3-yl)methyl)carbamate] |  | reduction in the degree of fibrosis | alleviation of pulmonary fibrosis and inflammation | survival rate increased | reduction in the degree of fibrosis | superior to that of nintedanib | alleviation of fibrosis and inflammation in the lungs |  |  | 
3 | COC(=O)c1ccc2c(c1)NC(=O)/C2=C(\Nc1ccc(N(C)C(=O)CN2CCN(C)CC2)cc1)c1ccccc1 [nintedanib] | reduction in fibrosis and inflammation in the lungs | reduction in the degree of fibrosis | alleviation of pulmonary fibrosis and inflammation | survival rate increased | reduction in the degree of fibrosis |  | alleviation of fibrosis and inflammation in the lungs | reduction in the degree of fibrosis | alleviation of pulmonary fibrosis and inflammation | reduction in the degree of fibrosis
